Results from patent US9617240B2 (TEIJIN PHARMA LIMITED, priority 2013, dated 2017).

System: level of uric acid in the blood
Assay: Hypouricemic effect in Cebus apella monkeys
Assay type: in vivo
Conditions: gavage, 1 mg/kg, 4 hours after administration
Protocol: To Cebus apella monkeys, test compounds suspended in 0.5% methylcellulose solution were administered by gavage into the stomach through the nasal cavity using a disposable catheter and a syringe. Blood was taken from the saphenous vein at 4 hours and 24 hours after the administration, after which the plasma was separated. The level of uric acid in the blood was measured using a uric acid measurement kit (L type Wako UA F: Wako Pure Chemical Industries, Ltd.) by the uricase method using an absorption spectrometer and the percentage of hypouricemic effect was determined by the following expression: Percentage of hypouricemic effect (%)=(Level of uric acid of the control animal−Level of uric acid of the test compound-administered animal)×100/Level of uric acid of the control animal.

Compound | Percentage of hypouricemic effect
N#Cc1cc(-n2cc(C(=O)O)cn2)ncc1-c1ccccc1 [Compound 1, 1-(4-cyano-5-phenylpyridin-2-yl)-1H-pyrazole-4-carboxylic acid] | ≥ 50%

Same assay, conditions: gavage, 1 mg/kg, 24 hours after administration

Compound | Percentage of hypouricemic effect
N#Cc1cc(-n2cc(C(=O)O)cn2)ncc1-c1ccccc1 [Compound 1, 1-(4-cyano-5-phenylpyridin-2-yl)-1H-pyrazole-4-carboxylic acid] | ≥ 50%

System: level of uric acid in the blood
Assay: Hypouricemic effect in normal rats
Assay type: in vivo, Sprague-Dawley male rats
Conditions: oral gavage, 1 mg/kg, 6 hours after administration
Protocol: A test compound suspended in a 0.5% methylcellulose solution was administered to 8 to 9 week-old Sprague-Dawley male rats (Japan Charles River Co.) by oral gavage administration using a feeding needle. After the blood was collected from the tail vein at 6 hours and 24 hours after administration, the plasma was separated. The level of uric acid in the blood sample was measured by uricase method using an absorption spectrometer as well as a uric acid determination kit (L type Wako UA F: Wako Pure Chemical Industries, Ltd.). The percentage of hypouricemic effect was determined by the following expression: Percentage of hypouricemic effect (%)=(Level of uric acid of the control animal−Level of uric acid of the test compound-administered animal)×100/Level of uric acid of the control animal.

Compound | Percentage of hypouricemic effect
N#Cc1cc(-n2cc(C(=O)O)cn2)ncc1-c1ccccc1 [Compound 1, 1-(4-cyano-5-phenylpyridin-2-yl)-1H-pyrazole-4-carboxylic acid] | ≥ 70%

Same assay, conditions: oral gavage, 1 mg/kg, 24 hours after administration

Compound | Percentage of hypouricemic effect
N#Cc1cc(-n2cc(C(=O)O)cn2)ncc1-c1ccccc1 [Compound 1, 1-(4-cyano-5-phenylpyridin-2-yl)-1H-pyrazole-4-carboxylic acid] | ≥ 70%

System: level of uric acid in the plasma
Assay: Hypouricemic effect in beagle dogs
Assay type: in vivo
Conditions: oral gavage, 3 mg/kg, 24 hours after administration
Protocol: The hypouricemic effect of the compound (I) in beagle dogs was confirmed. A test compound suspended in a 0.5% methyl cellulose solution was orally administered by gavage to beagle dogs (Kitayama Labes). Blood was drawn from the cephalic vein at 24 hours after administration and plasma was separated. The level of uric acid in the plasma sample was measured using an LC-MS/MS method and the percentage of hypouricemic effect was determined by the following expression: Percentage of hypouricemic effect (%)=(Level of uric acid of the control animal−Level of uric acid of the test compound-administered animal)×100/Level of uric acid of the control animal.

Compound | Percentage of hypouricemic effect
N#Cc1cc(-n2cc(C(=O)O)cn2)ncc1-c1ccccc1 [Compound 1, 1-(4-cyano-5-phenylpyridin-2-yl)-1H-pyrazole-4-carboxylic acid] | ≥ 50%

Biological target: T1, oxidase type xanthine oxidase (derived from buttermilk) (Bos taurus, UniProt P80457)
T1 construct: oxidase type xanthine oxidase (derived from buttermilk, supplied by Calbiochem Novabiochem Corp.); purchased Calbiochem Novabiochem Corp; host or cells: buttermilk (natural source)
Assay: Xanthine oxidase inhibitory activity (absorbance change at 290 nm)
Assay type: biochemical
Conditions: xanthine substrate, 100 mM phosphate buffer, absorbance at 290 nm for 5 minutes; read-out: Inhibitory Activity (50% inhibitory concentration with respect to oxidase type xanthine oxidase)
Protocol: The xanthine oxidase inhibitory activity was measured for the compounds synthesized according to the above Examples.
After a test compound was dissolved in DMSO (manufactured by Sigma Co.) so that the concentration is 20 mM, the test compound was prepared and used at a desired concentration at the time of use.
The evaluation of the xanthine oxidase inhibitory activity of the compounds of the present invention was conducted by partially modifying the method described in the literature (Method Enzymatic Analysis, 1, 521-522, 1974). The present evaluation is based on the oxidase type xanthine oxidase inhibitory activity evaluation. That is, a xanthine (manufactured by Sigma Co.) solution prepared at 10 mM in advance using a 20 mM sodium hydroxide solution was adjusted to 30 μM using a 100 mM phosphate buffer solution, and 75 μL/well of each solution was added into a 96-well plate. Aliquots (1.5 μL/well) of each test sample, which was diluted with DMSO so that the concentration is 100 times the final concentration, were added into a 96-well plate, and after mixing, the absorbance at 290 nm was measured by a microplate reader SPECTRA MAX Plus 384 (manufactured by Molecular Devices, LLC). Subsequently, oxidase type xanthine oxidase (derived from buttermilk, supplied by Calbiochem Novabiochem Corp.) was prepared at 30.6 mU/mL using a 100 mM phosphate buffer solution and 73.5 μL/well of each solution was added. Immediately after mixing, the change in absorbance at 290 nm was measured for 5 minutes. The enzyme activity when DMSO was used instead of a test compound solution was defined as 100%, the inhibitory rate of the test compounds was calculated and the 50% inhibitory concentration with respect to oxidase type xanthine oxidase was calculated by fitting to the dose-response curve.
Note that the symbols (+, ++, +++) in the table represent inhibitory activity values as shown below.

T1 sequence (P80457 whole entry): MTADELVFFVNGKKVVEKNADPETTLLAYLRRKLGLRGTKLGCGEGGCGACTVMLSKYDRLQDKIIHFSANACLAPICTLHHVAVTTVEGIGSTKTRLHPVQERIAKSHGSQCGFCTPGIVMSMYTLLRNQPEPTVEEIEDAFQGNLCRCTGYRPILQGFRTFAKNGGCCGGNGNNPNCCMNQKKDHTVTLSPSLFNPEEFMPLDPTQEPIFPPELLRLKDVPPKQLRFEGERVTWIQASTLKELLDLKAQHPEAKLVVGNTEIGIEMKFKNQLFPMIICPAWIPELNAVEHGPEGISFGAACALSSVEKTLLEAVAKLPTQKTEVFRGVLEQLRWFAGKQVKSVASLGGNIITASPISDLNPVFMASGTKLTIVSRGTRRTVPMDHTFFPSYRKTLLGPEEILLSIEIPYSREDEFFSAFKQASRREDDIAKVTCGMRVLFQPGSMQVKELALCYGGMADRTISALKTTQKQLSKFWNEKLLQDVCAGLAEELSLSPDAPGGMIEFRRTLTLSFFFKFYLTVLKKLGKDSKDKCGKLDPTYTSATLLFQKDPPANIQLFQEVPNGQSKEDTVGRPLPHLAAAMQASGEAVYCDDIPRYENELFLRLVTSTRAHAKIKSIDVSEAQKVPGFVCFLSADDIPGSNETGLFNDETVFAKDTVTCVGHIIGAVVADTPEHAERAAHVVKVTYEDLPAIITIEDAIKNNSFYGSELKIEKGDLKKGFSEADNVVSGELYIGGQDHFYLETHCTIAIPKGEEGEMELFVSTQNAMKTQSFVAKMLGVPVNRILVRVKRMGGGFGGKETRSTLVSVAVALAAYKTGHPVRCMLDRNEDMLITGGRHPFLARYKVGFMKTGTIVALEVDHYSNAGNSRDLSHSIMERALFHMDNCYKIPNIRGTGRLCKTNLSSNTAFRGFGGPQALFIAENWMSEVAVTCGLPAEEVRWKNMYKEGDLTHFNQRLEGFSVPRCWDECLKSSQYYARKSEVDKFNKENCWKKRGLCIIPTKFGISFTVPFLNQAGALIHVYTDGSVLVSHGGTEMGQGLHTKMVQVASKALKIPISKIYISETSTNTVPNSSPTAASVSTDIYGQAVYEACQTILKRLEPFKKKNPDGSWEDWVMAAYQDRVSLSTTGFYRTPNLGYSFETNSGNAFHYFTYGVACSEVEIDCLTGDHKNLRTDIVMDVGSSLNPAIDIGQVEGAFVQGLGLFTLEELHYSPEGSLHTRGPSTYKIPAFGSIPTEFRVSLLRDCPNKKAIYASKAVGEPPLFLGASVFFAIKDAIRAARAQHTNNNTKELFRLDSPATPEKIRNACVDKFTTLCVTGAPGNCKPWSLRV

IC50 | Compound
1 to 5 nM | N#Cc1cc(-n2cc(C(=O)O)cn2)ncc1-c1ccc(N2CCOCC2)cc1 [Compound 64, 1-{4-cyano-5-[4-(morpholine-4-yl)phenyl]pyridine-2-yl}-1H-pyrazole-4-carboxylic acid]
1 to 5 nM | CC(C)c1cccc(-c2cnc(-n3cc(C(=O)O)cn3)cc2C#N)c1 [Compound 48, 1-{4-cyano-5-[3-(propane-2-yl)phenyl]pyridine-2-yl}-1H-pyrazole-4-carboxylic acid]
≥ 10 nM | N#Cc1cc(-n2cc(C(=O)O)cn2)cnc1-c1cc(F)ccc1F [Compound 80, 1-[5-cyano-6-(2,5-difluorophenyl)pyridin-3-yl]-1H-pyrazole-4-carboxylic acid]
1 to 5 nM | Cc1cc(-c2cnc(-n3cc(C(=O)O)cn3)cc2C#N)ccc1F [Compound 37, 1-[4-cyano-5-(4-fluoro-3-methylphenyl)pyridin-2-yl]-1H-pyrazole-4-carboxylic acid]
1 to 5 nM | N#Cc1cc(-n2cc(C(=O)O)cn2)ncc1-c1ccc(Oc2ccccc2)cc1 [Compound 54, 1-[4-cyano-5-(4-phenoxyphenyl)pyridin-2-yl]-1H-pyrazole-4-carboxylic acid]
≥ 10 nM | Cc1cc(-c2ncc(-n3cc(C(=O)O)cn3)cc2C#N)ccc1F [Compound 82, 1-[5-cyano-6-(4-fluoro-3-methylphenyl)pyridin-3-yl]-1H-pyrazole-4-carboxyic acid]
≥ 10 nM | Cc1cc(F)ccc1-c1cnc(-n2cc(C(=O)O)cn2)cc1C#N [Compound 49, 1-[4-cyano-5-(4-fluoro-2-methylphenyl)pyridin-2-yl]-1H-pyrazole-4-carboxylic acid]
1 to 5 nM | COc1cccc(-c2cnc(-n3cc(C(=O)O)cn3)cc2C#N)c1 [Compound 13, 1-[4-cyano-5-(3-methoxyphenyl)pyridin-2-yl]-1H-pyrazole-4-carboxylic acid]
1 to 5 nM | N#Cc1cc(-n2cc(C(=O)O)cn2)ncc1-c1ccc(F)cc1 [Compound 29, 1-[4-cyano-5-(4-fluorophenyl)pyridin-2-yl]-1H-pyrazole-4-carboxylic acid]
≥ 10 nM | N#Cc1cc(-n2cc(C(=O)O)cn2)cnc1-c1ccccc1 [Compound 75, 1-(5-cyano-6-phenylpyridin-3-yl)-1H-pyrazole-4-carboxylic acid]
1 to 5 nM | N#Cc1cc(-n2cc(C(=O)O)cn2)ncc1-c1ccccc1 [Compound 1, 1-(4-cyano-5-phenylpyridin-2-yl)-1H-pyrazole-4-carboxylic acid]
5 to 10 nM | N#Cc1cc(-n2cc(C(=O)O)cn2)ncc1-c1ccoc1 [Compound 23, 1-[4-cyano-5-(furan-3-yl)pyridin-2-yl]-1H-pyrazole-4-carboxylic acid]
≥ 10 nM | N#Cc1nc(-n2cc(C(=O)O)cn2)ccc1-c1ccc(F)cc1 [Compound 89]
1 to 5 nM | Cc1ccc(-c2cnc(-n3cc(C(=O)O)cn3)cc2C#N)cc1 [Compound 14, 1-[4-cyano-5-(4-methylphenyl)pyridin-2-yl]-1H-pyrazole-4-carboxylic acid]
1 to 5 nM | COc1cccc(-c2cnc(-n3cc(C(=O)O)cn3)cc2C#N)c1F [Compound 19, 1-[4-cyano-5-(2-fluoro-3-methoxyphenyl)pyridin-2-yl]-1H-pyrazole-4-carboxylic acid]
1 to 5 nM | N#Cc1cc(-n2cc(C(=O)O)cn2)ncc1-c1csc2ccccc12 [Compound 61, 1-[5-(1-benzothiophen-3-yl)-4-cyanopyridin-2-yl]-1H-pyrazole-4-carboxylic acid]
5 to 10 nM | N#Cc1cc(-n2cc(C(=O)O)cn2)ncc1-c1cccc(F)c1 [Compound 11, 1-[4-cyano-5-(3-fluorophenyl)pyridin-2-yl]-1H-pyrazole-4-carboxylic acid]
≥ 10 nM | N#Cc1cc(-n2cc(C(=O)O)cn2)ncc1-c1cccnc1 [Compound 25, 1-[4-cyano-5-(pyridin-3-yl)pyridin-2-yl]-1H-pyrazole-4-carboxylic acid]
1 to 5 nM | Cc1ccsc1-c1cnc(-n2cc(C(=O)O)cn2)cc1C#N [Compound 22, 1-[4-cyano-5-(3-methylthiophen-2-yl)pyridin-2-yl]-1H-pyrazole-4-carboxylic acid]
≥ 10 nM | N#Cc1cc(-n2cc(C(=O)O)cn2)cnc1-c1ccccc1F [Compound 76, 1-[5-cyano-6-(2-fluorophenyl)pyridin-3-yl]-1H-pyrazole-4-carboxylic acid]
1 to 5 nM | Cc1cc(-c2cnc(-n3cc(C(=O)O)c(N)n3)cc2C#N)ccc1F [Compound 106, 3-amino-1-[4-cyano-5-(4-fluoro-3-methylphenyl)pyridin-2-yl]-1H-pyrazole-4-carboxylic acid]
1 to 5 nM | N#Cc1cc(-n2cc(C(=O)O)c(N)n2)ncc1-c1ccc(F)cc1 [Compound 99, 3-amino-1-[4-cyano-5-(4-fluorophenyl)pyridin-2-yl]-1H-pyrazole-4-carboxylic acid]
≥ 10 nM | Cc1cc(-c2ccc(-n3cc(C(=O)O)cn3)nc2C#N)ccc1F [Compound 94, 1-[6-cyano-5-(4-fluoro-3-methylphenyl)pyridin-2-yl]-1H-pyrazole-4-carboxylic acid]
5 to 10 nM | Cc1ccc(-c2ncc(-n3cc(C(=O)O)cn3)cc2C#N)cc1F [Compound 83, 1-[5-cyano-6-(3-fluoro-4-methylphenyl)pyridin-3-yl]-1H-pyrazole-4-carboxylic acid]
1 to 5 nM | CC(C)c1ccc(-c2cnc(-n3cc(C(=O)O)cn3)cc2C#N)cc1 [Compound 47, 1-[4-cyano-5-[4-(propane-2-yl)phenyl]pyridin-2-yl}-1H-pyrazole-4-carboxylic acid]
1 to 5 nM | Cc1ccc(F)c(-c2cnc(-n3cc(C(=O)O)c(N)n3)cc2C#N)c1 [Compound 104, 3-amino-1-[4-cyano-5-(2-fluoro-5-methylphenyl)pyridin-2-yl]-1H-pyrazole-4-carboxylic acid]
